In patent US20260007133A1, “HERBICIDAL COMPOSITION COMPRISING AZINE COMPOUNDS” (BASF SE, priority 2022, published 2026):

Key:
Format in all cases: in vivo
[1] = tested on: Geranium pusillum; assay: Greenhouse pre-emergence (PRE) herbicidal test on GERPU; conditions: PRE, 20 DAT; for % activity: GERPU
Text: The culture containers used were plastic pots containing loamy sand with approximately 3.0% of humus as substrate. The seeds of the test plants were sown separately for each species.
For the pre-emergence treatment, the active compounds, suspended or emulsified in water, were applied directly after sowing by means of finely distributing nozzles. The containers were irrigated gently to promote germination and growth and subsequently covered with transparent plastic hoods until the plants had rooted. This cover caused uniform germination of the test plants unless this was adversely affected by the active compounds.
Depending on the species, the plants were kept at 10-25° C. and 20-35° C., respectively.
The test period extended over 2 to 4 weeks. During this time, the plants were tended and their response to the individual treatments was evaluated.
Evaluation was carried out using a scale from 0 to 100. 100 means no emergence of the plants, or complete destruction of at least the above-ground parts, and 0 means no damage or normal course of growth. A good herbicidal activity is given at values of at least 70, and very good herbicidal activity is given at values of at least 85.
If not stated differently, the respective components A and B, and if appropriate, C were formulated as a 5% by weight strength emulsion concentrate and, with addition of the amount of solvent system, introduced into the spray liquor used for applying the active compound.
As indicated application was either post emergent (POST) at the respective growth stage (GS) of the weed (BBCH code), or pre-emergent (PRE).
Assessment was 20 days after treatment (DAT).

[2] = tested on: Abutilon theophrasti; assay: Greenhouse pre-emergence (PRE) herbicidal test on ABUTH; conditions: 20 DAT; for % activity solo application: ABUTH
Procedure, shortened: (§1)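 Seeds were sown per species in pots of loamy sand with about 3.0% humus, treated pre-emergence, watered and hooded until rooted. Plants grew at 10-25° C or 20-35° C depending on species. Damage was scored 0-100 (100 = no emergence or above-ground parts destroyed) at 20 DAT.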

[3] = tested on: Commelina benghalensis; assay: Greenhouse pre-emergence (PRE) herbicidal test on COMBE; conditions: 20 DAT
Procedure, shortened: as §1

[4] = tested on: Geranium pusillum; assay: Greenhouse post-emergence (POST) herbicidal test on GERPU; conditions: Geranium pusillum, post-emergence, 480 h, GERPU POST, 20 DAT, use rate 12.5 gai/ha
Procedure, shortened: (§2)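 For this test, compounds formulated as a 5% by weight emulsion concentrate were diluted into spray liquor and applied post-emergence. Species were kept at 10-25° C or 20-35° C and injury was scored at 20 DAT on a 0–100 scale.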

[5] = tested on: Ipomoea hederacea; assay: Greenhouse post-emergence (POST) herbicidal test on IPOHE; conditions: 20 DAT; for % activity solo application: POST, IPOHE
Procedure, shortened: as §2

[6] = tested on: Echinochloa crus-galli; assay: Greenhouse post-emergence (POST) herbicidal test on ECHCG; conditions: Echinochloa crus-galli, post-emergence, 480 h, ECHCG POST, 20 DAT, use rate 25 gai/ha
Procedure, shortened: as §2

[7] = tested on: Amaranthus retroflexus; assay: Greenhouse post-emergence (POST) herbicidal test on AMARE; conditions: 20 DAT; for % activity solo application: POST, AMARE
Procedure, shortened: as §2

[8] = tested on: Ambrosia artemisiifolia; assay: Greenhouse pre-emergence (PRE) herbicidal test on AMBEL; conditions: 20 DAT; for % activity solo application: PRE, AMBEL
[9] = tested on: Abutilon theophrasti; assay: Greenhouse post-emergence (POST) herbicidal test on ABUTH; conditions: 20 DAT; for % activity solo application: POST, ABUTH
Procedure, shortened: as §2

[10] = tested on: Amaranthus retroflexus; assay: Greenhouse pre-emergence (PRE) herbicidal test on AMARE; conditions: 20 DAT; for % activity solo application: PRE, AMARE
Procedure, shortened: as §1

[11] = tested on: Setaria viridis; assay: Greenhouse pre-emergence (PRE) herbicidal test on SETVI; conditions: 20 DAT; for % activity solo application: PRE, SETVI
Procedure, shortened: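 Seeds sown per species in pots of loamy sand with approx. 3.0% humus; compounds suspended or emulsified in water were sprayed via fine nozzles directly after sowing. Pots were watered and hooded until rooted, held at 10-25° C. or 20-35° C. by species, and scored 0–100 (100 = no emergence/complete destruction) 20 DAT.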

[12] = tested on: Euphorbia heterophylla; assay: Greenhouse pre-emergence (PRE) herbicidal test on EPHHL; conditions: 20 DAT; for % activity solo application: PRE, EPHHL
Procedure, shortened: as §1

[13] = tested on: Lolium multiflorum; assay: Greenhouse pre-emergence (PRE) herbicidal test on LOLMU; conditions: 20 DAT; for % activity solo application: PRE, LOLMU
Procedure, shortened: as §1

[14] = tested on: Euphorbia heterophylla; assay: Greenhouse post-emergence (POST) herbicidal test on EPHHL; conditions: 20 DAT; for % activity solo application: POST, EPHHL
Procedure, shortened: as §2

[15] = tested on: Alopecurus myosuroides; assay: Greenhouse pre-emergence (PRE) herbicidal test on ALOMY; conditions: PRE, ALOMY, 20 DAT
Procedure, shortened: as §1

[16] = tested on: Echinochloa crus-galli; assay: Greenhouse pre-emergence (PRE) herbicidal test on ECHCG; conditions: PRE, ECHCG, 20 DAT
[17] = tested on: Digitaria sanguinalis; assay: Greenhouse post-emergence (POST) herbicidal test on DIGSA; conditions: POST, DIGSA, 20 DAT
Procedure, shortened: as §2

COc1cc(OC)nc(Oc2cccc(Oc3nc(OC)cc(OC)n3)c2C(=O)O)n1 [Bispyribac-Sodium, bispyribac-sodium]
inhibition at […] ([1]; Geranium pusillum, pre-emergence, 480 h, use rate 7.5 gai/ha): 75%
inhibition at […] ([2]; Abutilon theophrasti, pre-emergence, 480 h, PRE, use rate 7.5 gai/ha, read-out: % activity): 5%
inhibition at 15 g/ha ([2]; Abutilon theophrasti, pre-emergence, 480 h, PRE, use rate 15 gai/ha, read-out: % activity): 45%
inhibition at 15 g/ha ([3]; Commelina benghalensis, pre-emergence, 480 h, PRE, use rate 15 gai/ha): 80%

CC(C)N(C(=O)COc1nnc(C(F)(F)F)s1)c1ccc(F)cc1 [Flufenacet, flufenacet]
inhibition at 12.5 g/ha [4]: 5%
inhibition at 12.5 g/ha ([5]; Ipomoea hederacea, post-emergence, 480 h, IPOHE POST, use rate 12.5 gai/ha): 0%
inhibition at 25 g/ha ([5]; Ipomoea hederacea, post-emergence, 480 h, IPOHE POST, use rate 25 gai/ha): 0%
inhibition at 12.5 g/ha ([2]; Abutilon theophrasti, pre-emergence, 480 h, ABUTH PRE, use rate 12.5 gai/ha): 0%
inhibition at 25 g/ha [6]: 85%
inhibition at 12.5 g/ha ([3]; Commelina benghalensis, pre-emergence, 480 h, COMBE PRE, use rate 12.5 gai/ha): 10%
inhibition at 25 g/ha ([3]; Commelina benghalensis, pre-emergence, 480 h, COMBE PRE, use rate 25 gai/ha): 35%
inhibition at 12.5 g/ha ([7]; Amaranthus retroflexus, post-emergence, 480 h, AMARE POST, use rate 12.5 gai/ha): 15%
inhibition at 25 g/ha ([7]; Amaranthus retroflexus, post-emergence, 480 h, AMARE POST, use rate 25 gai/ha): 25%
inhibition at 12.5 g/ha ([8]; Ambrosia artemisiifolia, pre-emergence, 480 h, AMBEL PRE, use rate 12.5 gai/ha): 0%
inhibition at 25 g/ha ([9]; Abutilon theophrasti, post-emergence, 480 h, ABUTH POST, use rate 25 gai/ha): 0%
inhibition at 12.5 g/ha ([10]; Amaranthus retroflexus, pre-emergence, 480 h, AMARE PRE, use rate 12.5 gai/ha): 0%
inhibition at 25 g/ha ([11]; Setaria viridis, pre-emergence, 480 h, SETVI PRE, use rate 25 gai/ha): 65%
inhibition at 12.5 g/ha ([12]; Euphorbia heterophylla, pre-emergence, 480 h, EPHHL PRE, use rate 12.5 gai/ha): 10%
inhibition at 25 g/ha ([12]; Euphorbia heterophylla, pre-emergence, 480 h, EPHHL PRE, use rate 25 gai/ha): 10%
inhibition at 12.5 g/ha ([13]; Lolium multiflorum, pre-emergence, 480 h, LOLMU PRE, use rate 12.5 gai/ha): 0%
inhibition at 25 g/ha ([13]; Lolium multiflorum, pre-emergence, 480 h, LOLMU PRE, use rate 25 gai/ha): 35%
inhibition at 12.5 g/ha ([14]; Euphorbia heterophylla, post-emergence, 480 h, EPHHL POST, use rate 12.5 gai/ha): 0%

O=C(Nc1ccc(F)cc1)c1cccc(Oc2cccc(C(F)(F)F)c2)n1 [Picolinafen, picolinafen]
% activity ([1]; use rate 50 gai/ha): 15%
% activity ([1]; use rate 100 gai/ha): 40%
% activity ([15]; use rate 50 gai/ha): 25%

CCc1cccc(C)c1N(C(=O)CCl)[C@@H](C)COC [S-Metolachlor, S-metolachlor]
% activity solo application ([16]; 25 gai/ha): 20%
% activity solo application ([16]; 50 gai/ha): 50%
% activity solo application ([5]; 25 gai/ha): 0%
% activity solo application ([5]; 50 gai/ha): 0%
% activity solo application ([2]; PRE, 25 gai/ha): 0%
% activity solo application ([2]; PRE, 50 gai/ha): 0%
% activity solo application ([3]; PRE, COMBE, 25 gai/ha): 10%
% activity solo application ([15]; 25 gai/ha): 0%
% activity solo application ([15]; 50 gai/ha): 0%
% activity solo application ([7]; 25 gai/ha): 5%
% activity solo application ([7]; 50 gai/ha): 60%
% activity solo application ([8]; 25 gai/ha): 0%
% activity solo application ([8]; 50 gai/ha): 0%
% activity solo application ([9]; 25 gai/ha): 0%
% activity solo application ([9]; 50 gai/ha): 0%
% activity solo application ([10]; 25 gai/ha): 20%
% activity solo application ([10]; 50 gai/ha): 20%
% activity solo application ([11]; 25 gai/ha): 10%
% activity solo application ([11]; 50 gai/ha): 75%
% activity solo application ([12]; 25 gai/ha): 0%
% activity solo application ([12]; 50 gai/ha): 0%
% activity solo application ([17]; 25 gai/ha): 0%
% activity solo application ([17]; 50 gai/ha): 10%
% activity solo application ([13]; 25 gai/ha): 0%
% activity solo application ([13]; 50 gai/ha): 0%
% activity solo application ([14]; 25 gai/ha): 0%
% activity solo application ([14]; 50 gai/ha): 5%
